{
  "source": "patent US20230190870A1",
  "about": "“Method for Treating Lysosomal Storage Diseases with Histatin Peptides” (THE BOARD OF TRUSTEES OF THE UNIVERSITY OF ILLINOIS, priority 2020, published 2023)",
  "key": {"[1]": {"target": "T1, TMEM97 (S2R) containing HEK293T membranes (Homo sapiens, UniProt Q5BJF2)", "T1 construct": "expressed in transfected cells; host or cells: HEK293T (transient overexpression; membranes prepared by UNC PDSP)", "assay": "Radioligand binding/competition assay with [3H]-DTG (UNC PDSP)", "details": "secondary radioligand binding assay; hot ligand [3H]-DTG"}, "[2]": {"target": "T2, TMEM97 (144-176) (Homo sapiens, UniProt Q5BJF2)", "T2 construct": "made in house; host or cells: chemical solid-phase synthesis (Fmoc, Wang resin)", "T2 sequence (Q5BJF2 144-176 limits assumed)": "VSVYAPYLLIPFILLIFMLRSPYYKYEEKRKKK", "assay": "Isothermal titration calorimetry, C-terminal of TMEM97", "type": "binding", "details": "ITC; the C-terminal of TMEM97", "method": "Isothermal Titration Calorimetry (ITC). The three synthesized peptides, TMEM97 (108-176), TMEM97 (108-143) and TMEM97 (144-176) were prepared in ITC buffer (10 mM Tris, pH 7.4, 150 mM NaCl, 0.05% polysorbate 20) at 40 μM concentration and placed in the sample cell. All ITC experiments were performed while stirring at 395 rpm, in ITC buffer at 25° C. using a VP-ITC titration microcalorimeter from MicroCal™, LLC (Northampton, Mass.). The microsyringe was loaded with a Histatin 1 solution (500 μM in ITC buffer). All titrations were conducted using an initial injection of 2.5 μL followed by 35 identical injections of 5 μL with a duration of 16 seconds (per injection) and a spacing of 210 seconds between injections. The buffer control titration (Histatin 1 into buffer) signals were subtracted from the experimental data. The collected data were evaluated using NITPIC (NIH), SEDPHAT (NIH), and GUSSI (NIH).\nTo determine more precisely which segment of TMEM97 is necessary for binding of Hst1, multiple synthetic fragments of TMEM97 were generated (Table 6) and binding to Hst1 was tested using SPR. […] Smaller fragments of the C-terminal of TMEM97 were then constructed to represent the (predicted) luminal (108-143) and cytoplasmic (144-176) exposed segments of the C-terminus of TMEM97 based on modeling experiments previously described. […] SPR results for Hst1 were confirmed using ITC as an orthogonal analytical method."}, "[3]": {"target": "TMEM97 (Homo sapiens, UniProt Q5BJF2)", "sequence (Q5BJF2 whole entry, species assumed)": "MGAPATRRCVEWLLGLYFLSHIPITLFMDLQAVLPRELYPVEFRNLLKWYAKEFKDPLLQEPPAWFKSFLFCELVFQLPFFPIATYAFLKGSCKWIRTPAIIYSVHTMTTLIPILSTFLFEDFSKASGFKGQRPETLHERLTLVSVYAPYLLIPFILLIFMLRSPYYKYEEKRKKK", "assay": "ELISA on plates coated with TMEM97", "type": "binding", "method": "A co-immunoprecipitation (co-IP) assay was performed to determine if the interaction between Hst1 and TMEM97 was reproducible at the cellular level. […] These bands may represent monomeric and dimeric versions of Hst1 and are similar to what has been seen with western blot analyses of Hst1 containing samples. […] Enzyme-linked immunosorbent assay (ELISA) were also conducted to detect bound Hst1 on plates coated with TMEM97."}, "[4]": {"test_system": "HCE cells", "assay": "Wound healing in vitro scratch assay", "type": "cell-based, human", "method": "Transfection/Knock-Down of TMEM97. Sub-confluent monolayers of HCE cells in grown in 35-mm six-well plates were transfected with reaction mixtures composed of 100 pmol of small interfering RNA (siRNA) to TMEM97 (Santa Cruz Biotechnology; Dallas, Tex.) for 48 hours and 5 μL of transfection reagent sold under the tradename LIPOFECTAMINE® 2000 (Invitrogen; Carlsbad, Calif.) in culture medium sold under the tradename OPTI-MEMO media (Gibco Life Technologies; Grand Island, N.Y.). Complexes were incubated for 20 minutes at 24° C. and then added to cells at 37° C. Incubation was continued for 24 to 48 hours at 37° C. in 5% CO2. Knock-down (KD) of TMEM97 was confirmed by western blot analysis using a rabbit anti-TMEM97 antibody (Novus Bio.; Littleton, Colo.).\nWound Healing in vitro Scratch Assay. HCE cells were cultured in a 96-well plate at 5×10^4 (cells/well) seeding density, and were grown to confluence. Subsequently, a straight line scratch mark was made with a multiscratch wound maker (IncuCyte® 96-well WoundMaker Tool, Essen Biosciences; Ann Arbor, Mich.). The cells were then washed twice with PBS to remove cellular debris. […] The wound areas were measured using ImageJ software (ImageJ 1.47v, NIH, Thornwood; Bethesda, Md.). Relative wound closure was calculated by dividing the closure of the treated wound by that of the untreated control wound. […]"}, "[5]": {"test_system": "NPC1 patient fibroblasts", "assay": "Gene expression in NPC1 patient fibroblasts", "type": "cell-based, human"}, "[6]": {"test_system": "NPC1 KD cells", "assay": "LC3 immunolocalization in NPC1 KD cells (autophagy)", "type": "cell-based", "details": "20 μM or 50 μM", "excerpt": "Autophagy. NPC1-deficiency results in increased autophagy as evidenced by elevated microtubule-associated protein 1 light chain 3 (LC3) levels, numerous autophagic vacuoles and enhanced degradation of long-lived proteins (Pacheco, et al. (2007) Human Mol. Genet. 16(12):1495-1503)."}},
  "note": "Entries after “also recorded” stand apart in the source; their conditions may differ. Square brackets hold non-standard residues; d marks the D form. Peptide text beside a SMILES is read from it. pS = N[C@@H](COP(=O)(O)O)C(=O)O",
  "data": [
    {"compound": "CC(C)C[C@H](NC(=O)[C@H](Cc1ccc(O)cc1)NC(=O)[C@H](CC(N)=O)NC(=O)[C@H](CO)NC(=O)CNC(=O)[C@H](Cc1ccc(O)cc1)NC(=O)[C@H](CC(=O)O)NC(=O)CNC(=O)[C@H](Cc1ccc(O)cc1)NC(=O)[C@H](Cc1ccccc1)NC(=O)[C@@H]1CCCN1C(=O)[C@H](Cc1ccccc1)NC(=O)[C@H](CCC(=O)O)NC(=O)[C@H](CCCNC(=N)N)NC(=O)[C@H](Cc1c[nH]cn1)NC(=O)[C@H](CO)NC(=O)[C@H](Cc1c[nH]cn1)NC(=O)[C@H](Cc1c[nH]cn1)NC(=O)[C@H](CCCCN)NC(=O)[C@H](CCC(=O)O)NC(=O)[C@H](Cc1c[nH]cn1)NC(=O)[C@H](Cc1ccccc1)NC(=O)[C@H](CCCCN)NC(=O)[C@H](CCCNC(=N)N)NC(=O)[C@H](CCCNC(=N)N)NC(=O)[C@H](Cc1ccc(O)cc1)NC(=O)CNC(=O)[C@H](Cc1c[nH]cn1)NC(=O)[C@H](Cc1c[nH]cn1)NC(=O)[C@H](CCCNC(=N)N)NC(=O)[C@H](CCCCN)NC(=O)[C@H](CCC(=O)O)NC(=O)[C@H](Cc1c[nH]cn1)NC(=O)[C@H](COP(=O)(O)O)NC(=O)[C@@H](N)CC(=O)O)C(=O)N[C@@H](Cc1ccc(O)cc1)C(=O)N[C@@H](CC(=O)O)C(=O)N[C@@H](CC(N)=O)C(=O)O", "note": "[Hst1] (H-D[pS]HEKRHHGYRRKFHEKHHSHREFPFYGDYGSNYLYDN-OH; N-terminus and C-terminus assumed)", "values": [
      {"measurement": "Ki", "setting": "[1]", "result": 239, "unit": "nM"},
      {"measurement": "Kd", "setting": "[2]", "result": "460 ± 120", "unit": "nM"},
      {"measurement": "ΔH", "setting": "[2]", "result": "-790 ± 28", "unit": "kcal/mol"},
      {"measurement": "ΔS", "setting": "[2]", "result": "−2.28(±0.37)×10^3 cal/mol K"},
      {"measurement": "binding to TMEM97 in ELISA", "setting": "[3]", "result": "confirmed binding"},
      {"measurement": "effect of DTG on Hst1 binding in ELISA", "setting": "[3]; addition of 1,3-Di-o-tolylguanidine (DTG)", "result": "did not alter"},
      {"measurement": "scratch closure / wound healing rate", "setting": "[4]; 20 or 50 μM, 8 and 16 hours, versus untreated control", "result": "increases in wound healing rates; also recorded: statistically significant improvement in scratch closure rates"},
      {"measurement": "wound closure response in TMEM97 KD cells", "setting": "[4]; siRNA knock-down of TMEM97", "result": "abolished this responsiveness; also recorded: loss of this response"},
      {"measurement": "HMG-CoA reductase gene expression", "setting": "[5]", "result": "reducing HMG-CoA reductase gene expression"},
      {"measurement": "NPC1 gene expression", "setting": "[5]", "result": "increasing NPC1 gene expression"},
      {"measurement": "LC3 levels", "setting": "[6]", "result": "dose-dependent reduction in LC3 levels"}
    ]}
  ]
}
